Values of other authors, collected in patent US10500182B2, “Compositions of ketogenic sources, micronutrients and phytochemicals for prophylaxis and mitigation of migraine headache” (priority 2018, dated 2019).

How the values were obtained:
migraine [1] = conditions: oral and intravenous supplementation, migraineurs
migraine [2] = conditions: ten percent solution applied topically to the forehead and temples

Compound	reduction of migraine frequency and severity (migraine [1])	migraine pain and nausea (migraine [2])
[Mg+2] [magnesium, Magnesium]	more than 40%	
CC1CCC(C(C)C)C(O)C1 (centres unmarked) [menthol]		effective at terminating migraine pain and easing nausea
